Measurements reported in patent US6358883B1, “Pesticidal and parasiticidal use of 1-aryl-1-(substituted thio, sulfinyl and sulfonyl)-2-nitroethane compounds” (American Cyanamid Company, priority 1998, dated 2002).

What was measured:
Assay type in all cases: in vivo
[1] = system: Tetranychus urticae (OP-resistant strain), 2-spotted spider mite (TSM); assay: 2-spotted spider mite (TSM) plant dip test; set-up: key: 0 = no effect; 1 = 10-25% kill; 2 = 26-35% kill; 3 = 36-45% kill; 4 = 46-55% kill; 5 = 56-65% kill; 6 = 66-75% kill; 7 = 76-85% kill; 8 = 86-99% kill; 9 = 100% kill; settings: mortality after 2 days
Experimental: (§1) Test solutions are prepared by dissolving the test compound in a 35% acetone in water mixture to give a concentration of 10,000 ppm. Subsequent dilutions are made with water as needed.
Tetranychus urticae (OP-resistant strain), 2-spotted Spider Mite (TSM)
Sieva lima bean plants with primary leaves expanded to 7-8 cm are selected and cut back to one plant per pot. A small piece is cut from an infested leaf taken from the main colony and placed on each leaf of the test plants. This is done about 2 hours before treatment to allow the mites to move over to the test plant to lay eggs. The size of the cut, infested leaf is varied to obtain about 100 mites per leaf. At the time of test treatment, the piece of leaf used to transfer the mites is removed and discarded. The newly-infested plants are dipped in the test solution for 3 seconds with agitation and set in the hood to dry. After 2 days, one leaf is removed and mortality counts are made.

[2] = system: Diabrotica virgifera virgifera Leconte, 2nd instar western corn rootworm (WCR); assay: Western corn rootworm (WCR) soil test; set-up: key: 0 = no effect; 1 = 10-25% kill; 2 = 26-35% kill; 3 = 36-45% kill; 4 = 46-55% kill; 5 = 56-65% kill; 6 = 66-75% kill; 7 = 76-85% kill; 8 = 86-99% kill; 9 = 100% kill
Experimental: Test solutions are prepared by dissolving the test compound in a 35% acetone in water mixture to give a concentration of 10,000 ppm. Subsequent dilutions are made with water as needed. Diabrotica virgifera virgifera Leconte, 2nd Instar Western Corn Rootworm (WCR) One cc of fine talc is placed in a 30 mL wide-mouth screw-top glass jar. One mL of the appropriate acetone test solution is pipetted onto the talc so as to provide 1.25 mg of active ingredient per jar. The jars are set under a gentle air flow until the acetone is evaporated. The dried talc is loosened, 1 cc of millet seed is added to serve as food for the insects and 25 mL of moist soil is added to each jar. The jar is capped and the contents thoroughly mixed mechanically. Following this, ten 2nd instar rootworms are added to each jar and the jars are loosely capped to allow air exchange for the larvae. The treatments are held for 5 days when mortality counts are made. Missing larvae are presumed dead, since they decompose rapidly and cannot be found. The concentrations of active ingredient used in this test correspond approximately to 50 kg/ha. [table]

[3] = system: M. incognita (Root Knot Nematode) larvae; assay: Evaluation of test compounds against M. incognita larvae in microtiter plate wells (movement score); settings: larvae scored for movement after 20-24 hours; note: key: A score of '9' indicates inactive worms with a straight, sticklike morphology; A score of '8' indicates inactive worms with a limp, curled or curved morphology; A score of '7' indicates dead/paralyzed worms after 72 hours
Experimental: Evaluation of Test Compounds Against M. incognita (Root Knot Nematode)
Newly emerged M. incognita larvae are suspended in S Medium (buffered salt solution) to a concentration of 50-65 worms per 50 μl. 50 μl of the worm suspension are pipetted into microtiter plate wells containing the test compounds. The plates are then covered with plactic plate sealers to reduce loss of volume by evaporation. After 20-24 hours of incubation, the larvae are scored for movement. Wells containing obviously dead/paralyzed larvae are scored as positive. […] A score of “7” indicates dead/paralyzed worms after […].

[4] = system: C. elegans (Bristol strain); assay: Evaluation of test compounds against C. elegans (motility, 96-well plate); set-up: key: 9=complete kill in 4 hours; 8=complete kill in 24 hours; 7=markedly reduced motility in approximately 95% of worms in 24 hours; 0=normal motility, same as controls; settings: motility at 4 and 24 hours
Experimental: Evaluation of Test Compounds Against C. elegans Cultures of C. elegans (Bristol strain from J. Lewis) are maintained on E. coli lawns on NG Agar Plates at 20° C. New cultures are established weekly. Nematodes for testing are washed from cultures using Na buffer. Compounds are dissolved in 80% acetone. The test material is micropipetted (25 μl) into a single well of a 96-well sterile tissue culture plate and the solvent allowed to evaporate. A freshly prepared volume (50 μl) of C. elegans in Na buffer is micropipetted into each treated well and several control wells per plate. Plates are incubated at 20° C. Observations for efficacy are made under a dissecting microscope at 4 and 24 hours post-immersion. Immediately prior to reading the plate, it is gently tapped to stimulate the movement of the worms. Activity is judged subjectively, but semi-quantitatively, based on the drug effects on motility of the adults and larvae.

[5] = system: Aphis gossypii, cotton aphid (CA); assay: Cotton aphid (CA) cotyledon dip test; set-up: key: 0 = no effect; 1 = 10-25% kill; 2 = 26-35% kill; 3 = 36-45% kill; 4 = 46-55% kill; 5 = 56-65% kill; 6 = 66-75% kill; 7 = 76-85% kill; 8 = 86-99% kill; 9 = 100% kill; settings: mortality after 5 days
Experimental: Test solutions are prepared by dissolving the test compound in a 35% acetone in water mixture to give a concentration of 10,000 ppm. Subsequent dilutions are made with water as needed. Aphis gossypii, Cotton Aphid (CA) Cotton plants at the cotyledon stage are selected and cut back to one plant per pot. A heavily infested leaf is taken from the main colony and placed on top of each cotyledon. The aphids are allowed to transfer to the host plant overnight. At the time of test treatment, the leaf used to transfer the aphids is removed and discarded. The cotyledons are dipped in the test solution and allowed to dry. After 5 days, mortality counts are made. [table]

[6] = system: Spodoptera eridania, 2nd instar larvae, southern armyworm (SAW); assay: Southern armyworm (SAW) leaf dip test; set-up: key: 0 = no effect; 1 = 10-25% kill; 2 = 26-35% kill; 3 = 36-45% kill; 4 = 46-55% kill; 5 = 56-65% kill; 6 = 66-75% kill; 7 = 76-85% kill; 8 = 86-99% kill; 9 = 100% kill
Experimental: as §1
Spodoptera eridania, 2nd Instar Larvae, Southern Armyworm (SAW)
A Sieva lima bean leaf expanded to 7-8 cm in length is dipped in the test solution with agitation for 3 seconds and allowed to dry in a hood. The leaf is then placed in a 100×10 mm petri dish containing a damp filter paper on the bottom and ten 2nd instar caterpillars. At 5 days, observations are made of mortality, reduced feeding, or any interference with normal molting.

[7] = system: Spodoptera eridania, eggs-southern armyworm (SAW-Eggs); assay: Southern armyworm eggs (SAW-Eggs) treated diet test; set-up: key: 0 = no effect; 1 = 10-25% kill; 2 = 26-35% kill; 3 = 36-45% kill; 4 = 46-55% kill; 5 = 56-65% kill; 6 = 66-75% kill; 7 = 76-85% kill; 8 = 86-99% kill; 9 = 100% kill; settings: mortality after 7 days
Experimental: (§2) Test solutions are prepared by dissolving the test compound in a 35% acetone in water mixture to give a concentration of 10,000 ppm. Subsequent dilutions are made with water as needed. Spodoptera eridania, Eggs-southern Armyworm and Diabrotica undecimpunctata howardi, Eggs-southern Corn Rootworm (SAW-Eggs) and (SCR-Eggs) Wells containing artificial diet are treated with the test solutions and dried. The appropriate insect eggs are then placed in the wells. The wells are covered with vented, adhesive, clear plastic covers. After 7 days, mortality counts are made. [table]

[8] = system: Diabrotica undecimpunctata howardi, eggs-southern corn rootworm (SCR-Eggs); assay: Southern corn rootworm eggs (SCR-Eggs) treated diet test; set-up: key: 0 = no effect; 1 = 10-25% kill; 2 = 26-35% kill; 3 = 36-45% kill; 4 = 46-55% kill; 5 = 56-65% kill; 6 = 66-75% kill; 7 = 76-85% kill; 8 = 86-99% kill; 9 = 100% kill; settings: mortality after 7 days
Experimental: as §2

| Structure (SMILES) | TSM (300 ppm) rating [1] | WCR (50 ppm) rating [2] | M. incognita (150 ppm) score [3] | Rating Against C. elegans (150 ppm) [4] | CA (300 ppm) rating [5] | SAW (300 ppm) rating [6] | SAW Eggs (300 ppm) rating [7] | SCR Eggs (1000 ppm) rating [8] |
| --- | --- | --- | --- | --- | --- | --- | --- | --- |
| CCOC(=O)CSC(C[N+](=O)[O-])c1ccccc1 (stereo not drawn) [Example 6] | 0 | 7 (7 = 76-85% kill) | 9 | 8 | 0 | 0 | 0 |  |
| CCCCOC(=O)CSC(C[N+](=O)[O-])c1ccccc1 (stereo not drawn) [Example 7] | 0 | 0 | 9 | 8 | 0 | 0 | 0 |  |
| CC(C)CCCCCOC(=O)CSC(C[N+](=O)[O-])c1ccccc1 (stereo not drawn) [Example 8] | 0 | 0 | 0 | 0 | 0 | 0 | 0 |  |
| CCCCC(CC)COC(=O)CSC(C[N+](=O)[O-])c1ccccc1 (stereo not drawn) [Example 9] | 0 | 4 (4 = 46-55% kill) | 0 | 0 | 0 | 0 | 0 |  |
| O=[N+]([O-])CC(SCc1ccccc1)c1ccccc1 (stereo not drawn) [Example 10] | 0 | 0 | 0 | 0 | 0 | 0 | 0 |  |
| CCOC(=O)CSC(C[N+](=O)[O-])c1ccccc1F (stereo not drawn) [Example 40] | 0 | 9 (9 = 100% kill) | 9 | 8 | 0 | 3 (3 = 36-45% kill) |  | 0 |
| CCCCOC(=O)CSC(C[N+](=O)[O-])c1ccccc1F (stereo not drawn) [Example 41] | 0 | 9 (9 = 100% kill) | 9 | 7 | 0 | 1 (1 = 10-25% kill) |  | 0 |
| CC(C)CCCCCOC(=O)CSC(C[N+](=O)[O-])c1ccccc1F (stereo not drawn) [Example 42] | 0 | 6 (6 = 66-75% kill) | 0 | 0 | 0 | 0 |  | 9 (9 = 100% kill) |
| CCCCC(CC)COC(=O)CSC(C[N+](=O)[O-])c1ccccc1F (stereo not drawn) [Example 43] | 0 | 7 (7 = 76-85% kill) | 0 | 0 | 0 | 4 (4 = 46-55% kill) |  | 9 (9 = 100% kill) |
| O=[N+]([O-])CC(SCc1ccccc1)c1ccccc1F (stereo not drawn) [Example 44] | 0 | 4 (4 = 46-55% kill) | 0 | 7 | 0 | 5 (5 = 56-65% kill) |  | 0 |
| CCCSC(C[N+](=O)[O-])c1ccccc1F (stereo not drawn) [Example 45] | 0 | 8 (8 = 86-99% kill) | 0 | 0 | 0 | 0 |  | 7 (7 = 76-85% kill) |
| C=CCSC(C[N+](=O)[O-])c1ccccc1F (stereo not drawn) [Example 46] | 0 | 9 (9 = 100% kill) | 9 | 7 | 0 | 1 (1 = 10-25% kill) |  | 0 |
| CCOC(=O)CSC(C[N+](=O)[O-])c1ccccc1Cl (stereo not drawn) [Example 89] | 0 | 0 | 8 | 0 | 0 | 0 |  | 0 |
| CCCCOC(=O)CSC(C[N+](=O)[O-])c1ccccc1Cl (stereo not drawn) [Example 90] | 3 (3 = 36-45% kill) | 0 | 8 | 7 | 0 | 0 |  | 0 |
| CC(C)CCCCCOC(=O)CSC(C[N+](=O)[O-])c1ccccc1Cl (stereo not drawn) [Example 91] | 0 | 0 | 0 | 0 | 0 | 0 |  | 0 |
